Data from patent US12636259B2, “Transdermal absorption preparation” (Sumitomo Pharma Co., Ltd., priority 2020, dated 2026).

Test: Saturation solubility measurement of compound A in additives
Format: physicochemical
Conditions: room temperature
Method: Various additives were weighed into a vial, compound A was added until it was no longer dissolved, and the mixture was stirred overnight at room temperature. The mixture was filtered using a 0.45 μm PTFE filter and the concentration of compound A in the filtrate was quantified by high performance liquid chromatography (ODS column, UV detector). When the concentration of compound A exceeded 20%, the addition of compound A was stopped.

- saturation solubility of compound A (tandospirone) (additive: N-methyl-2-pyrrolidone): 15.4%
- saturation solubility of compound A (tandospirone) (additive: diisopropyl adipate): 2.0%
- saturation solubility of compound A (tandospirone) (additive: dipropylene glycol): 1.6%
- saturation solubility of compound A (tandospirone) (additive: isopropyl myristate): 0.6%
- saturation solubility of compound A (tandospirone) (additive: lactic acid, stirred overnight, drug addition stopped when solubility exceeded 20%): not less than 20%
- saturation solubility of compound A (tandospirone) (additive: lauromacrogol (4)): 2.0%
- saturation solubility of compound A (tandospirone) (additive: levulinic acid, drug addition stopped when solubility exceeded 20%): not less than 20%
- saturation solubility of compound A (tandospirone) (additive: oleic acid, drug addition stopped when solubility exceeded 20%): not less than 20%
- saturation solubility of compound A (tandospirone) (additive: oleyl alcohol): 1.0%
- saturation solubility of compound A (tandospirone) (additive: polysorbate 20): 1.4%
- saturation solubility of compound A (tandospirone) (additive: polysorbate 80): 1.4%
- saturation solubility of compound A (tandospirone) (additive: propylene glycol fatty acid diester (C8)): 1.3%
- saturation solubility of compound A (tandospirone) (additive: propylene glycol fatty acid ester (C8)): 5.0%
- saturation solubility of compound A (tandospirone) (additive: propylene glycol fatty acid ester (C12)): 5.9%
- saturation solubility of compound A (tandospirone) (additive: sorbitan monolaurate, measured as mixed solution isopropyl myristate/sorbitan monolaurate = 50/50): 2.3%
SMILES: O=C1[C@@H]2[C@H]3CC[C@H](C3)[C@@H]2C(=O)N1CCCCN1CCN(c2ncccn2)CC1 [compound A, (1R,2S,3R,4S)—N-[4-[4-(pyrimidin-2-yl)piperazin-1-yl]butyl]-2,3-bicyclo[2.2.1]heptan dicarboxyimide]
